Reference: ChEMBL document CHEMBL1201862, “PubChem BioAssay data set” (2004)
The source made the active and inactive calls.

Columns and labels:
[1] = CellTiter-Glo luminescent dose response of DLD-1 viability loss (AID 1117352); type: functional
[2] = cytotoxicity toward HCT116 cells – cell-based, CellTiter-Glo luminescence, IC50, dose response (AID 1117332); type: functional; settings: HCT-116
[3] = HeLa 2N DNA content increase, dose response, cell-based, IC50 (AID 1117349); type: functional
[4] = cytotoxicity toward Colo320 cells – cell-based, CellTiter-Glo luminescence, IC50, dose response (AID 1117334); type: functional; settings: COLO 320
[5] = HeLa 4N DNA content increase, dose response, cell-based, IC50 (AID 1117351); type: functional
[6] = RKO cell viability reduction, dose response, CellTiter-Glo luminescence (AID 1117322); type: functional
[7] = SNU-C1 cell viability reduction, dose response, CellTiter-Glo luminescence (AID 1117323); type: functional, cell-based
[8] = cytotoxicity toward HT-29 cells – cell-based, CellTiter-Glo luminescence, IC50, dose response (AID 1117330); type: functional
[9] = Concentration-dependent survival of SW480 colon cancer line, luminescence detection with CellTiter-Glo, half-maximal inhibitory concentration (AID 1117338); type: functional
[10] = Jurkat T cell cytotoxicity, dose response, cytotoxicity control for P. falciparum gametocyte viability project, luminescence (AID 1117277); type: functional, cell-based;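 further: potency reflects loss of cellular ATP meaning fewer viable cells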
[11] = P. falciparum late gametocyte killing, dose response, luminescence (AID 1117278); type: functional, cell-based;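 further: gametocytes exposed to compound for 24 hours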
[12] = biological target: T1, Mannose-6-phosphate isomerase (Homo sapiens, UniProt P34949); test: human PMI inhibitors, high substrate, primary screen, biochemical, fluorescence intensity, high mannose 6-phosphate (AID 1220)
T1 sequence (P34949 whole entry): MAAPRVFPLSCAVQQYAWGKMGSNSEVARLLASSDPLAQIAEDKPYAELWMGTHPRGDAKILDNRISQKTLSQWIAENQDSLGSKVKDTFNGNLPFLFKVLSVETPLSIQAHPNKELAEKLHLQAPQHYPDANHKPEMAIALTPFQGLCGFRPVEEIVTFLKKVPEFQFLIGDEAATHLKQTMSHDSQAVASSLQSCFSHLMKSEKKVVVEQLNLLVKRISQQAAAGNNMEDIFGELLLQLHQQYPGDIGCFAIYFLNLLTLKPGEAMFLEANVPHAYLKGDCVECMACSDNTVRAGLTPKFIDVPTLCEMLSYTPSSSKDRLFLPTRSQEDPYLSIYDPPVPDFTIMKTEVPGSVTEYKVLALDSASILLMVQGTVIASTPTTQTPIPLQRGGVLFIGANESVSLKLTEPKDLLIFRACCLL

[13] = biological target: T2, Streptokinase A (Streptococcus pyogenes serotype M1, UniProt P10520); test: S. pyogenes streptokinase expression inhibitors, potency, dose response, plasminogen activation absorbance, OD405 (AID 1914); type: functional, Streptococcus pyogenes M1 GAS;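 further: secreted streptokinase activity via plasminogen activation per viability signal from cell pellet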
T2 sequence (P10520 whole entry): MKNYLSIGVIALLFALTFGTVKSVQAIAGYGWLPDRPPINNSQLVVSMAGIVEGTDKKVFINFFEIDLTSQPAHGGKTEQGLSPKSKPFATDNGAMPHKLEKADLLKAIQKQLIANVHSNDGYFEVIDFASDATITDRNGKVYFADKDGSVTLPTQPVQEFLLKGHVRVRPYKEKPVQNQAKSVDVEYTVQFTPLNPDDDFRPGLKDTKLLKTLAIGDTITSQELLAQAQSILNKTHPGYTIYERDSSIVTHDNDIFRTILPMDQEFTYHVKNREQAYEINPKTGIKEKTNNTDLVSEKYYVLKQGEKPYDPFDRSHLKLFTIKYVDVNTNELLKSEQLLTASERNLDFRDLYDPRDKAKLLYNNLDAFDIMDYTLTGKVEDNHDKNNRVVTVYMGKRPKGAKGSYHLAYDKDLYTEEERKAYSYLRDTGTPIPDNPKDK

[14] = test system: Vero; test: Vero cell cytotoxicity, cytotoxicity control for flavivirus capping enzyme inhibitors (AID 588742); type: functional; settings: Chlorocebus sabaeus
[15] = biological target: T3, Rac GTPase-activating protein 1 (Homo sapiens, UniProt Q9H0H5); test: MgcRacGAP GTPase-activating activity inhibitors, confirmation, biochemical, ADP Hunter fluorescence, primary and confirmatory (AID 624330); type: functional
T3 sequence (Q9H0H5 whole entry): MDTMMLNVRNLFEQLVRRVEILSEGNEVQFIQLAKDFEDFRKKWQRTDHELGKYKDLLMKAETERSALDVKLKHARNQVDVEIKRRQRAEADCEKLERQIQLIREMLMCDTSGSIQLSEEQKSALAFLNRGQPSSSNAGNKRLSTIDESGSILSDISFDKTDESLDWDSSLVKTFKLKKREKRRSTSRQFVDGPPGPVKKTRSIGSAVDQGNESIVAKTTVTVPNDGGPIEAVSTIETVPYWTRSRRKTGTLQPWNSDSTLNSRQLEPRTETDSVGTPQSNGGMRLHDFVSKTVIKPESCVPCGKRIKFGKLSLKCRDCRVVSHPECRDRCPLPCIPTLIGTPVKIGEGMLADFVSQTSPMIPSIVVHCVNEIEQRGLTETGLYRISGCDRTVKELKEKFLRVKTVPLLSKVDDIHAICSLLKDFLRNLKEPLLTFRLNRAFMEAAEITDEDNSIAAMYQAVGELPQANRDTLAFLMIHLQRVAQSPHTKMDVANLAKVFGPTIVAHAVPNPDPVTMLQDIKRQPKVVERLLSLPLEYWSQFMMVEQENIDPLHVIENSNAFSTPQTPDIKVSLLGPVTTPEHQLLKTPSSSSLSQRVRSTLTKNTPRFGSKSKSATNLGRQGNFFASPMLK

[16] = test system: Streptococcus; test: Group A Streptococcus viability loss, dose response, counter-screen for streptokinase expression inhibitor project, luminescence, BacTiterGlo (AID 1915); type: functional, organism-based;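 further: potency for reduction of bacterial viability or growth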
[17] = test system: Streptococcus sp. 'group A'; test: growth inhibition of control SK(-) GAS strain, dose response, counter-screen for streptokinase expression inhibitor project, luminescence, kanamycin, BacTiterGlo, confirmation (AID 1900); type: functional, organism-based
[18] = M. tuberculosis H37Rv growth inhibitors, H37Rv strain (AID 1626); type: functional
[19] = biological target: Protein Tat (Human immunodeficiency virus type 1 group M subtype B (isolate HXB2)(HIV-1), UniProt P04608); type: functional;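 further: tat binding to TAR RNA read out by fluorescence polarization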
Sequence of Protein Tat (P04608 whole entry): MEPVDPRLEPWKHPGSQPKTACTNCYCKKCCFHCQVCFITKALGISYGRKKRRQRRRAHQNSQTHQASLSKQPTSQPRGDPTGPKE

[20] = biological target: T4, Small ubiquitin-related modifier 1 (Homo sapiens, UniProt P63165); test: inhibitors of SUMO1 peptide binding, dose response, biochemical, fluorescence polarization, uHTS hits (AID 624382); type: functional; settings: read-out: IC50_Mean
T4 sequence (P63165 whole entry, the tested form may be a part): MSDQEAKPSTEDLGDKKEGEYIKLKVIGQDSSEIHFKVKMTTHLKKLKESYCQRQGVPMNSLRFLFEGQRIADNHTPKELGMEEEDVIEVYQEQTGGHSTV

[21] = biological target: T5, Carboxy-terminal domain RNA polymerase II polypeptide A small phosphatase 1 (Homo sapiens, UniProt Q9GZU7); test: inhibitors of CTDSP1, concentration-response testing, biochemical assay, absorbance-based, actives from ultra-high-throughput screening (AID 540297); type: functional
T5 sequence (Q9GZU7 whole entry): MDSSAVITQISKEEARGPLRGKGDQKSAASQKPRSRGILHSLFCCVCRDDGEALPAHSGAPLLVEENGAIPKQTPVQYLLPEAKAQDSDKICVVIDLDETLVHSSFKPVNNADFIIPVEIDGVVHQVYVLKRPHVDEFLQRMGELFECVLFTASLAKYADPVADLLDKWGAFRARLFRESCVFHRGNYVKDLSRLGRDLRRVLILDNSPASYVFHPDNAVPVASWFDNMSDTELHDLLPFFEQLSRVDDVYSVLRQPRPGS

[22] = biological target: T4, Small ubiquitin-related modifier 1; test: inhibitors of SUMO1 partner interactions, dose response, biochemical, FRET (AID 624383); type: functional; settings: read-out: IC50_Mean
[23] = biological target: T6, Probable nicotinate-nucleotide adenylyltransferase (Staphylococcus aureus (strain N315), UniProt P65502); type: functional, Staphylococcus aureus subsp. aureus N315; settings: read-out: IC50_Mean;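 on IC50 Mean: confirmatory dose-response retesting of NadD inhibitor hits first found in an ultra-high-throughput screen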
T6 sequence (P65502 whole entry): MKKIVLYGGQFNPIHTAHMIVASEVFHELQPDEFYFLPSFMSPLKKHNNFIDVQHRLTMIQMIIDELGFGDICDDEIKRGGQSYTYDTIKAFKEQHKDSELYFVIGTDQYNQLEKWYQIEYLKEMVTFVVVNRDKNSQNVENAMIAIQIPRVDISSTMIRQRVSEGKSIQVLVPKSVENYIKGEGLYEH

[24] = THP-1 cell cytotoxicity, dose response, cytotoxicity control for Vif-APOBEC3G degradation inhibitor project, THP-1 cells (AID 1117359); type: functional; settings: Human immunodeficiency virus 1, THP-1
[25] = biological target: T6, Probable nicotinate-nucleotide adenylyltransferase; type: functional, Staphylococcus aureus subsp. aureus N315
[26] = biological target: Nonstructural protein 1 (Influenza A virus, UniProt Q194T2); type: functional, Influenza A virus (A/California/07/2009(H1N1))
Sequence of Nonstructural protein 1 (Q194T2 whole entry): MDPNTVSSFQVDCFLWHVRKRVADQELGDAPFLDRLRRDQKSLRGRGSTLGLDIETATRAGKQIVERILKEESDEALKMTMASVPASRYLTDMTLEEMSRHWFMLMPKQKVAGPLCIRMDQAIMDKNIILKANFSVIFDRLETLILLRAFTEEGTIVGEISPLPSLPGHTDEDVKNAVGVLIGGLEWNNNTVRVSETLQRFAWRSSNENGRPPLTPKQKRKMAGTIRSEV

[27] = biological target: T1, Mannose-6-phosphate isomerase; test: inhibitors of human PMI, primary screen, biochemical, fluorescence intensity, coupled assay (AID 1209)

In the case of `COc1ccc(-c2ccc3cc(C(=O)O)ccc3c2)cc1C12CC3CC(CC(C3)C1)C2`, the IC50 [1] is reported as 0.597 µM (active), the IC50 [2] is reported as 0.59 µM (active) and the IC50 [3] is reported as > 10 µM (inactive). The IC50 [4] was 0.787 µM (active), the IC50 [5] was > 10 µM (inactive) and the IC50 [6] was 0.444 µM (active). For the same compound, the IC50 [7] was 1.78 µM (active), the IC50 [8] was 1.12 µM (active) and the IC50 [9] was 0.405 µM (active).

With `Cc1ccc2nc(-c3ccccc3)c(-c3ccccc3)nc2c1` the IC50 [10] was > 83.3 µM (inactive) and the IC50 [11] was > 109 µM (inactive).

In the case of `Oc1c(Cl)cc(Cl)c2c1NCCC2`, the IC50 [12] is reported as 25.3 µM (active), the EC50 [13] is reported as > 150 µM (not active) and the CC50 [14] is reported as 34.5 µM (active). For the same compound, the IC50 [15] was 31.4 µM (active), the EC50 [16] was 85.5 µM (active) and the EC50 [17] was 5.36 µM (active).

For `CCOc1ccc(NC(=O)CCN2CCN(c3ccccc3)CC2)cc1`, the IC50 [18] was > 100 µM (active).

In the case of `CC(C)(C)c1cccc(OCCCSc2ncccn2)c1`, the IC50 [10] is reported as > 83.3 µM (inactive) and the IC50 [11] is reported as > 109 µM (inactive).

With `O=C(COC(=O)c1c2c(nc3ccccc13)/C(=C\c1ccco1)CC2)NC1CCCC1` the IC50 [19] was > 100 µM (active), the IC50 [20] was > 66.6 µM (inactive) and the IC50 [21] was 2.49 µM (active). The IC50 [22] was 10.4 µM (active), the IC50 [23] was 16.9 µM (active) and the CC50 [24] was > 40 µM (active). For the same compound, the IC50 [25] was 8.49 µM (active).

For `NC(=S)N/N=C/c1cccc(O)c1O`, the IC50 [15] was 31.5 µM (active), the IC50 [26] was 4.5 µM (active) and the IC50 [27] was 11 µM (active).
